Laboratory results taken from patent publication US20260184704A1, “NLRP3 INFLAMMASOME INHIBITORS AND USES THEREOF” (Insilico Medicine IP Limited, priority 2023, published 2026).

Columns and labels:
[1] = molecular target: T1, NLRP3 (Homo sapiens, UniProt Q96P20); assay: NLRP3 Enzymatic Activity ADP-Glo Assay (Example B-4); type: biochemical; conditions: hydrolysis of ATP by NLRP3; NLRP3 15 nM, ATP 1 μM; read-out: NLRP3_ADP-Glo_IC50 (nM), Example B-4
T1 construct: purchased ICE YM2306T-H06MHS
Description: Example B-4: NLRP3 Enzymatic Activity ADP-Glo Assay
NLRP3 activity test experiment, measuring the hydrolysis of NLRP3 on the substrate ATP using the ADP-Glo assay. First, after adding an inhibitor containing 0.5% DMSO with Echo, add 5 μL of NLRP3 (ICE, YM2306T-H06MHS) enzyme solution to each well, centrifuge at 1000 rpm for 1 min at room temperature and react for 10 min. Then add 5 μL of ATP (Promega, V915A) substrate solution to each well for 90 min at room temperature; NLRP3 and ATP were prepared in 50 mM HEPES, 10 mM MgCl2, 0.01% Brij-35, 1 mM EGTA, and 2 mM DTT buffers at final concentrations of 15 nM and 1 μM, respectively. Subsequently, 10 μL ADP-Glo reagent solution (Promega, V9102) was added into each assay well, centrifuged at 1000 rpm for 1 min, and then incubated at room temperature for 45 min. Finally, 20 μL ADP-Glo detection solution (Promega, V9102) is added to each well, centrifuged at 1000 rpm for 1 min and reacted for 45 min at room temperature. The luminescence signal values were read using a BMG instrument and the IC50 values were determined by fitting the data to an S-shaped dose-response curve using nonlinear regression.

[2] = tested on: THP-1 cells, IL-1β release; assay: IL-1β Release THP-1 Assay (Example B-3); type: cell-based; conditions: Homo sapiens; PMA-differentiated THP-1 cells, LPS then Nigericin, IL-1β by Elisa; read-out: Potency, THP-1 IL-1β, IC50 (nM), Example B-3
Description: Example B-3: IL-1β Release THP-1 Assay
THP-1 cells Culture RPMI1640 medium, 10% FBS, 1% PS, 55 uM β-Mer at 37° C. & 5% CO2 incubator.
IL-1β Release Detection • 1) Seed THP-1 in complete RPMI 1640 medium containing PMA into 96 well plate coated with poly-L-lysin incubate for 24 hours. • 2) Remove medium, wash the differentiated THP-1 cells with PBS, add FBS free RPMI 1640 medium. • 3) Add LPS and incubate for 3 hours at 37° C. & 5% CO2 incubator. • 4) Add compounds and incubate for 30 minutes at 37° C. & 5% CO2 incubator. • 5) Add Nigericin and incubate for 1 hour at 37° C. & 5% CO2 incubator. • 6) Collect supernatant to test IL-1β by Elisa.
• a) Assay robustness check with DMSO and Low control data:
[formula] • X: cpd concentration • Y: change % • Top and Bottom: Plateaus in same units as Y • logIC50: same log units as X • HillSlope: Slope factor or Hill slope

[3] = molecular target: T2, hERG (Homo sapiens, UniProt Q12809); assay: hERG Screening Assay Using Electrophysiological Manual Patch-Clamp (Example B-5); type: cell-based; conditions: hERG-CHO cells, whole-cell manual patch clamp, room temperature; read-out: hERG inhibition_IC50 (μM), Example B-5
T2 construct: expressed in transfected cells
Description: Example B-5: hERG Screening Assay Using Electrophysiological Manual Patch-Clamp
Cell lines: hERG-CHO cells
Method: CHO cells stably expressing the transcript of hERG were investigated by whole-cell manual patch clamp technique. hERG-CHO cells were cultured in 35 mm dishes to a maximum 70-80% confluence at 37° C. 5% CO2 incubator. The culture media (F12 medium (Invitrogen 11765062, ThermoFisher, USA) supplemented with 10% fetal bovine serum (Invitrogen 10099141, ThermoFisher, USA), 100 μg/mL G418 (Invitrogen 11811023, ThermoFisher, USA) and 100 μg/mL Hygromycin B (Invitrogen 10687010, ThermoFisher, USA)) was removed and the hERG-CHO cells were washed with extracellular solution (in mM): 140 NaCl, 5 KCl, 1 CaCl2), 1.25 MgCl2, 10 HEPES and 10 Glucose, pH 7.4 with NaOH. Then the cells were dissociated with 0.25% Trypsin-EDTA for 3-5 min, after that, the digestion solution was removed and the cells were resuspended in the extracellular solution with pipette by pipetting up and down several times. Resuspended cells were transferred to dishes for recording and cells were perfused with extracellular solution. Electrodes (a tip resistance of 3-5 MegOhm) were pulled from borosilicate grass pipette (Sutter instrument BF150-86-10) and filled with intracellular solution (in mM): 140 KCl, 1 MgCl2, 1 CaCl2), 10 EGTA and 10 HEPES, pH 7.2 with KOH. Data were obtained using a patch-clamp amplifier, signals were filtered at 2 kHz and sampled at frequencies of 10 kHz using pClamp 10 software. The cells were held at −100 mV and hERG potassium currents were activated by a 2 s depolarization potential of +20 mV followed by a repolarization potential of −50 mV for Is then back to the holding potential. Experiments were performed at room temperature.
Data analysis: Data were retrieved and analyzed using pClamp 10, GraphPad Prism 8 and Excel software. The peak amplitude of hERG currents were measured using clampfit and exported to Excel and GraphPad Prism 8 for subsequent analysis.
where Y is the inhibition % corresponding to X, [X] is the Log value of concentration of compound in the external solution and HillSlope is the Hill coefficient. The ratio of inhibition was calculated by using the equation: Inhibition=(1−I/Io)*100%, where Io and I are the current amplitude measured in control and in the presence of compounds, respectively. n is not less than 2 cells for each concentration.
Results: Compounds IC50 on hERG and concentration-response curves

T2 sequence (Q12809 whole entry): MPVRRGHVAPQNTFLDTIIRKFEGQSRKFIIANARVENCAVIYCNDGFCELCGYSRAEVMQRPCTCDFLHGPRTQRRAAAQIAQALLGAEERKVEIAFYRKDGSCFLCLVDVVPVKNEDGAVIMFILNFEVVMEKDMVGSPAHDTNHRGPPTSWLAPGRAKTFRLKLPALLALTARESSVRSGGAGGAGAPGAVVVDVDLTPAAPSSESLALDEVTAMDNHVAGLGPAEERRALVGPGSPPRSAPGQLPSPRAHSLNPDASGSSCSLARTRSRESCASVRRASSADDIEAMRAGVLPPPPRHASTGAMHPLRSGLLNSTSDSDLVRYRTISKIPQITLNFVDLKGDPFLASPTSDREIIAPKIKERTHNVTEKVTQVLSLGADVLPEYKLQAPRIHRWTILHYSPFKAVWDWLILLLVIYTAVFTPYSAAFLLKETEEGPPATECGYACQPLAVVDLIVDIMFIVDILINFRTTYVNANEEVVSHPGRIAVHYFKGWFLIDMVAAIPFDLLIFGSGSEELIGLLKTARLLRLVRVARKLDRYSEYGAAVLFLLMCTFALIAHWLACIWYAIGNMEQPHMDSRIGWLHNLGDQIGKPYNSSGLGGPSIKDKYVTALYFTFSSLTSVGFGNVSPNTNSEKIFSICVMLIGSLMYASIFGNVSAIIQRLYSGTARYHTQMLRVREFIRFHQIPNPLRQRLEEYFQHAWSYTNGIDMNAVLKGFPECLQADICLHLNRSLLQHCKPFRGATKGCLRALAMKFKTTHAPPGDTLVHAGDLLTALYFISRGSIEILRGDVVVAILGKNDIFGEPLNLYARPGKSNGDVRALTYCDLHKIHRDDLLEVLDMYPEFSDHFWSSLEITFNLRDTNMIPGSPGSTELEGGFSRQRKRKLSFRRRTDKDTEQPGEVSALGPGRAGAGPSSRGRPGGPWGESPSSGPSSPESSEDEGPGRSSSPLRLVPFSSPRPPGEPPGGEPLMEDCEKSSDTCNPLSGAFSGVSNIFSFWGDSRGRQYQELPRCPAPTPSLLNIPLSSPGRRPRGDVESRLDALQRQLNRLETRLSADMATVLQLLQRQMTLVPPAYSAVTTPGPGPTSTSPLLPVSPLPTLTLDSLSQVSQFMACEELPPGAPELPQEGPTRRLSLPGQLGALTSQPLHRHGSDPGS
T1 sequence (Q96P20 whole entry): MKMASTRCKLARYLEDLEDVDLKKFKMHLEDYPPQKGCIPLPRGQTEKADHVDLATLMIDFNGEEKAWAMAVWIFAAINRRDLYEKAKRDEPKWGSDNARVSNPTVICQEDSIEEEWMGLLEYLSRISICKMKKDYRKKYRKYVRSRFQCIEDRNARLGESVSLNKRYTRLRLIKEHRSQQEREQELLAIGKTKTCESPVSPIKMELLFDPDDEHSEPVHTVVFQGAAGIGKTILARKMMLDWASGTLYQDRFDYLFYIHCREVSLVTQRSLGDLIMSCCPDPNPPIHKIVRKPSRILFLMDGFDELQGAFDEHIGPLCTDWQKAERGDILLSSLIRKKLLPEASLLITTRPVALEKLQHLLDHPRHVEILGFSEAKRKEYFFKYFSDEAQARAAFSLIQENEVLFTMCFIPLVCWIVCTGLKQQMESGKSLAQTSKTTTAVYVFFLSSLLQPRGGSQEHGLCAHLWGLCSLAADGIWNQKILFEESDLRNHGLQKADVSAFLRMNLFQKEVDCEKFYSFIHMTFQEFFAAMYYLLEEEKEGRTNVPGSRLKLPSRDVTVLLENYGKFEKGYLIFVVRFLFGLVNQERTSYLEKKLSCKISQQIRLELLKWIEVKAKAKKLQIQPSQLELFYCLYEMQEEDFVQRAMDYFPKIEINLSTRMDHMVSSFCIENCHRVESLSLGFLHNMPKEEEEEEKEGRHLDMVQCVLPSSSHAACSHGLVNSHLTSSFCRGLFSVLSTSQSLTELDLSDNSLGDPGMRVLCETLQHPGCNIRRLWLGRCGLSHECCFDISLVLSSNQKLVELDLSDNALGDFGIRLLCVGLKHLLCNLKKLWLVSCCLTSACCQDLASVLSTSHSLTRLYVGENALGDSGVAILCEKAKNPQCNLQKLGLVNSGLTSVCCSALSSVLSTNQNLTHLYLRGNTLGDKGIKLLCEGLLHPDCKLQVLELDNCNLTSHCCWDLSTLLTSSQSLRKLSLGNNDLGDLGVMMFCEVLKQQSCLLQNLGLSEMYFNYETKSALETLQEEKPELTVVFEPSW

Row | SMILES | IC50 [1] | IC50 [2] | IC50 [3]
1 | Cc1cc(C(F)(F)F)cc(O)c1C1=NN=C(N[C@@H]2C[C@@H](F)CN(C)C2)SC1 [Compound 8] | 10 to 100 nM | 10 to 100 nM | 19.1 µM
2 | Cc1cc(C(F)(F)F)cc(O)c1C1=NN=C(N[C@H]2C[C@@](C)(O)C2)SC1 [Compound 10] | 10 to 100 nM | 10 to 100 nM | > 30 µM
3 | Cc1cc2c(c(O)c1C1=NN=C(N[C@@H]3CCCN(C)C3)SC1)CCO2 [Compound 28] | 10 to 100 nM | < 10 nM | 29.4 µM
4 | Cc1cc2c(c(O)c1C1=NN=C(N[C@H]3C[C@@](C)(O)C3)SC1)CCO2 [Compound 31] | 10 to 100 nM | 10 to 100 nM | > 30 µM
5 | Cc1cc2c(c(O)c1C1=NN=C(N[C@H]3C[C@@](C)(O)C3)SC1)CC2 [Compound 59] | < 10 nM | < 10 nM | > 30 µM
6 | Cc1cc2c(c(O)c1C1=NN=C(N[C@@H]3CCCN(C)C3)CS1)CCO2 [Compound 205] | < 10 nM | < 10 nM | 
7 | Cc1cc(Cl)cc(O)c1C1=NN=C(N[C@H]2C[C@@](C)(N)C2)CS1 [Compound 206] | 10 to 100 nM | 10 to 100 nM | 
